Data taken from US20260297085A1, “1 H-PYRROLO[2,3-B]PYRIDIN-4-YL]-2-OXOPYRROLIDINE-3-CARBONITRILE DERIVATIVES AS TYROSINE KINASE 2 (TYK2) INHIBITORS FOR THE TREATMENT OF INFLAMMATORY DISEASES” (BIOGEN MA INC., priority 2023, published 2026).
Where a name gives a salt, the structure may show the parent alone.

Assays:
[1] = target: T1, human JAK2 kinase domain (JH1) (Homo sapiens, UniProt O60674); assay: JH1 biochemical assay for JAK2 (ADP-Glo kinase assay, recombinant JH1 catalytic domain, JAK3-974 peptide, 15 μM ATP)
T1 construct: recombinantly generated catalytic kinase (also known as JH1) domain of human JAK1, JAK2, JAK3 and TYK2
T1 sequence (O60674 849-1124 limits assumed): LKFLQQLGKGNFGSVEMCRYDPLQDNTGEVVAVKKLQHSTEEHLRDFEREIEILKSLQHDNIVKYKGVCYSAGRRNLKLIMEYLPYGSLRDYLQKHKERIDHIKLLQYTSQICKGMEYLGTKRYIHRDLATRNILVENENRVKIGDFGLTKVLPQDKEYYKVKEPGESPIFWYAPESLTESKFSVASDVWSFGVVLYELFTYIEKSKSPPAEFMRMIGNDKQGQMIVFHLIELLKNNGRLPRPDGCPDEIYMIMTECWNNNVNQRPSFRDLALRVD
Summary of the method: (§1)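 Luminescent ADP read-out after residual ATP depletion, 100 min reaction. Kinase domain concentrations were 4 nM (JAK1), 0.2 nM (JAK2), 0.3 nM (JAK3) and 2 nM (TYK2), each with 50 μM peptide. IC50 values came from 4-parameter logistic fits over 11 points, 3-fold steps, top 10 μM or 1 μM.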

[2] = target: T2, human JAK3 kinase domain (JH1) (Homo sapiens, UniProt P52333); assay: JH1 biochemical assay for JAK3 (ADP-Glo kinase assay, recombinant JH1 catalytic domain, JAK3-974 peptide, 4 μM ATP)
T2 construct: recombinantly generated catalytic kinase (also known as JH1) domain of human JAK1, JAK2, JAK3 and TYK2
T2 sequence (P52333 822-1111 limits assumed): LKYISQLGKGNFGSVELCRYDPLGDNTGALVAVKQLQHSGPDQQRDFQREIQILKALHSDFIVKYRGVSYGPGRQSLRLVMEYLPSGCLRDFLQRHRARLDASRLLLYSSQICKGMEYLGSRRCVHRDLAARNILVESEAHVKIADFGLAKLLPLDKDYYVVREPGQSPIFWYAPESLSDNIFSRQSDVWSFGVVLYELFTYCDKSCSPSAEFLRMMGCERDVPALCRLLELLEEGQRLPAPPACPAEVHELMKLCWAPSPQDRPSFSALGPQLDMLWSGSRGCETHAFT
Summary of the method: as §1

[3] = target: T3, human JAK1 kinase domain (JH1) (Homo sapiens, UniProt P23458); assay: JH1 biochemical assay for JAK1 (ADP-Glo kinase assay, recombinant JH1 catalytic domain, JAK3-342 peptide, 35 μM ATP)
T3 construct: recombinantly generated catalytic kinase (also known as JH1) domain of human JAK1, JAK2, JAK3 and TYK2
T3 sequence (P23458 875-1153 limits assumed): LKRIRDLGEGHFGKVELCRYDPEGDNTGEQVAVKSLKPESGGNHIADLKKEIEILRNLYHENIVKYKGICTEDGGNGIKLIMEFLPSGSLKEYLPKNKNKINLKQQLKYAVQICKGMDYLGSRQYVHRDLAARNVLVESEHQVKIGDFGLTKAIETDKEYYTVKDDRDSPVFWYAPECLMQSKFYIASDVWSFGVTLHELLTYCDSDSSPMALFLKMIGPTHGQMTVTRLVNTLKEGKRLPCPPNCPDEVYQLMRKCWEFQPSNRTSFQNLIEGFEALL
Summary of the method: as §1

[4] = target: Tyk2 kinase activity on STAT4 in NK92 cells (Homo sapiens, UniProt P29597); assay: pSTAT4 cell assay (MSD; NK92 cells, 30 ng/mL IL2 stimulation); assay type: cell-based; details: 30 ng/mL IL2, 15 minutes
Sequence of Tyk2 kinase activity on STAT4 in NK92 cells (P29597 whole entry): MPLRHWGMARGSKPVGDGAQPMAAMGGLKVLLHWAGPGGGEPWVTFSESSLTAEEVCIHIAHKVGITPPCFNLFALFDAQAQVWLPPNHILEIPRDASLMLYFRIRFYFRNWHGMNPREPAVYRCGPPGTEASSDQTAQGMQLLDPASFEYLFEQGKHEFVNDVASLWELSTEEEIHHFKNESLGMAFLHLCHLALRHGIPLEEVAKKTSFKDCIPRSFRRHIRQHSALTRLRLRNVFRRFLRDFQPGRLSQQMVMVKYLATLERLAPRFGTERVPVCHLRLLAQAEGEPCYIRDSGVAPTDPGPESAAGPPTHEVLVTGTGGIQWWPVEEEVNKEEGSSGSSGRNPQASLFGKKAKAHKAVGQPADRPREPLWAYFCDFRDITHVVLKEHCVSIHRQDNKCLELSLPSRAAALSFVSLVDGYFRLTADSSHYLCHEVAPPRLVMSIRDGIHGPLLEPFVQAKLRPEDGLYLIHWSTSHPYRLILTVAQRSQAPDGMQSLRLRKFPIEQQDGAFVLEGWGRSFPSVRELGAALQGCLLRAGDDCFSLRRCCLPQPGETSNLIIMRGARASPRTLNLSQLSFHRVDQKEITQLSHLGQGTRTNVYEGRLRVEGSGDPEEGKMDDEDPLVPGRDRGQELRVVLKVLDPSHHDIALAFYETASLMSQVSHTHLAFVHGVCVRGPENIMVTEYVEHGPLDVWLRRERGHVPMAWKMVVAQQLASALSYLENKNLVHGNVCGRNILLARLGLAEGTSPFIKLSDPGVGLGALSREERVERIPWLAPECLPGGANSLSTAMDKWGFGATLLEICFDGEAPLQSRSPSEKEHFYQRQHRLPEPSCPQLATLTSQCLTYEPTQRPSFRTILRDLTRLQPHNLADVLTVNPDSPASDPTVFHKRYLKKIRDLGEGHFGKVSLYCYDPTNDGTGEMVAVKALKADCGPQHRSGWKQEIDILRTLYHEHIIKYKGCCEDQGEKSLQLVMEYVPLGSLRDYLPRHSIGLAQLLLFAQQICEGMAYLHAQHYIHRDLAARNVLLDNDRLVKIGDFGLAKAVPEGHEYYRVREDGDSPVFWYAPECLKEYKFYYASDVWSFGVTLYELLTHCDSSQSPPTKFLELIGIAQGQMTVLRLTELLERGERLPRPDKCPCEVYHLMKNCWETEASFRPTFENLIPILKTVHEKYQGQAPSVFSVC
Description: The inhibitory potency of compounds of the disclosure against the Tyk2 kinase activity on STAT4 was evaluated using an MSD-platform plate-based assay format. NK92 cells natively expressing STAT4 and Tyk2 were serum-starved to reduce background phosphorylation levels, then cells were treated compounds for 1 hr with a 10-point four-fold dilution series starting at 10 μM. Cells were then stimulated with 30 ng/mL IL2 for 15 minutes. Cells were lysed and […] levels were quantitated using an MSD plate-based assay with anti-STAT4 antibodies. The data were normalized and the percent activity versus log concentration of compound were fitted with a 4-parameter logistic model to generate to generate IC50 curves.

[5] = target: T4, human TYK2 kinase domain (JH1) (Homo sapiens, UniProt P29597); assay: JH1 biochemical assay for TYK2 (ADP-Glo kinase assay, recombinant JH1 catalytic domain, JAK3-974 peptide, 10 μM ATP)
T4 construct: recombinantly generated catalytic kinase (also known as JH1) domain of human JAK1, JAK2, JAK3 and TYK2
T4 sequence (P29597 897-1176 limits assumed): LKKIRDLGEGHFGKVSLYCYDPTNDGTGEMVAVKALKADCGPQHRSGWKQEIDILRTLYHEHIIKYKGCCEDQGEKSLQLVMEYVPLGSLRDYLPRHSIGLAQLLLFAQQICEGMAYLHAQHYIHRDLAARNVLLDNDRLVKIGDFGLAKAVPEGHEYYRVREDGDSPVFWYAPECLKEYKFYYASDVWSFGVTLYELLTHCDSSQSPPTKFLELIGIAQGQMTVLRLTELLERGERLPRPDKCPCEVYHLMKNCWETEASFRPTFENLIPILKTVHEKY
Summary of the method: as §1

Compound | IC50 ([1]; JAK2 JH1, ADP-Glo) [nM] | IC50 ([2]; JAK3 JH1, ADP-Glo) [nM] | IC50 ([3]; JAK1 JH1, ADP-Glo) [nM] | IC50 [4] [nM] | IC50 ([5]; TYK2 JH1, ADP-Glo) [nM] | IC50 ([1]; JH1 kinase domain, ADP-Glo) [nM] | IC50 ([2]; JH1 kinase domain, ADP-Glo) [nM] | IC50 ([3]; JH1 kinase domain, ADP-Glo) [nM] | IC50 ([5]; JH1 kinase domain, ADP-Glo) [nM]
C[C@@H]1CN(c2nc(-c3cnn(C4COC4)c3)cc3ncsc23)C(=O)[C@]1(C#N)C1CC1 [Example 352, (3R,4S)-3-cyclopropyl-4-methyl-1-(6-(1-(oxetan-3-yl)-1H-pyrazol-4-yl)thiazolo[5,4-c]pyridin-4-yl)-2-oxopyrrolidine-3-carbonitrile] | < 100 | < 100 | < 100 | 20 to 50 | < 5 | – | – | – | –
C[C@@H]1OC[C@@H]1n1cc(-c2cn3ncc(F)c3c(N3C[C@@H](C)[C@@](C#N)(C4CC4)C3=O)n2)cn1 (relative stereo) [Example 305, (3R,4S)-3-cyclopropyl-1-(3-fluoro-6-(1-((2S,3S)-2-methyloxetan-3-yl)-1H-pyrazol-4-yl)pyrazolo[1,5-a]pyrazin-4-yl)-4-methyl-2-oxopyrrolidine-3-carbonitrile and (3R,4S)-3-cyclopropyl-1-(3-fluoro-6-(1-((2R,3R)-2-methyloxetan-3-yl)-1H-pyrazol-4-yl)pyrazolo[1,5-a]pyrazin-4-yl)-4-methyl-2-oxopyrrolidine-3-carbonitrile] | < 100 | < 100 | < 100 | > 100 | < 5 | – | – | – | –
COc1ccc(-c2cn3nccc3c(N3C[C@@H](C)[C@@](C#N)(C4CC4)C3=O)n2)nc1 [Example 213, (3R,4S)-3-cyclopropyl-1-(6-(5-methoxypyridin-2-yl)pyrazolo[1,5-a]pyrazin-4-yl)-4-methyl-2-oxopyrrolidine-3-carbonitrile] | – | – | – | > 100 | – | 1000 to 5000 | 100 to 1000 | < 100 | 5 to 20
CC(C)[C@@]1(C#N)C(=O)N(c2nc(-c3cnn(C)c3)cn3ncc(F)c23)C[C@H]1C [Example 310, (3R,4S)-1-(3-fluoro-6-(1-methyl-1H-pyrazol-4-yl)pyrazolo[1,5-a]pyrazin-4-yl)-3-isopropyl-4-methyl-2-oxopyrrolidine-3-carbonitrile] | 100 to 1000 | < 100 | 100 to 1000 | > 100 | 5 to 20 | – | – | – | –
C[C@@H]1CN(c2nc(-c3ccc(N(C)C(=O)OC(C)(C)C)nc3)cn3nccc23)C(=O)[C@]1(C#N)C1CC1 [Example 266, tert-butyl (5-(4-((3R,4S)-3-cyano-3-cyclopropyl-4-methyl-2-oxopyrrolidin-1-yl)pyrazolo[1,5-a]pyrazin-6-yl)pyridin-2-yl)(methyl)carbamate trifluoroacetate] | < 100 | < 100 | < 100 | 50 to 100 | < 5 | – | – | – | –
C[C@@H]1CN(c2ccnn3cc(-n4cc(C(F)F)cn4)cc23)C(=O)[C@]1(C#N)C1CC1 [Example 338, (3R,4S)-3-cyclopropyl-1-(6-(4-(difluoromethyl)-1H-pyrazol-1-yl)pyrrolo[1,2-b]pyridazin-4-yl)-4-methyl-2-oxopyrrolidine-3-carbonitrile] | 100 to 1000 | 100 to 1000 | 1000 to 5000 | > 100 | 20 to 50 | – | – | – | –
Cc1cc(-c2cc(N3C[C@@H](C)[C@@](C#N)(C4CC4)C3=O)c3ccnn3c2)n[nH]1 [Example 318, (3R,4S)-3-cyclopropyl-4-methyl-1-(6-(5-methyl-1H-pyrazol-3-yl)pyrazolo[1,5-a]pyridin-4-yl)-2-oxopyrrolidine-3-carbonitrile] | 1000 to 5000 | 100 to 1000 | 100 to 1000 | > 100 | 5 to 20 | – | – | – | –
C[C@@H]1CN(c2ccnn3cc(-c4cnn([C@@H]5COCC(F)(F)C5)c4)cc23)C(=O)[C@]1(C#N)C1CC1 (single isomer, unassigned) [Example 328] | < 100 | < 100 | < 100 | > 100 | < 5 | – | – | – | –
COCc1cnn(-c2cc3c(N4C[C@@H](C)[C@@](C#N)(C5CC5)C4=O)ccnn3c2)c1 [Example 337, (3R,4S)-3-cyclopropyl-1-(6-(4-(methoxymethyl)-1H-pyrazol-1-yl)pyrrolo[1,2-b]pyridazin-4-yl)-4-methyl-2-oxopyrrolidine-3-carbonitrile] | 100 to 1000 | 100 to 1000 | 100 to 1000 | > 100 | 20 to 50 | – | – | – | –
C[C@@H]1CN(c2ccnn3cc(-n4cc(CC#N)cn4)cc23)C(=O)[C@]1(C#N)C1CC1 [Example 339, (3R,4S)-1-(6-(4-(cyanomethyl)-1H-pyrazol-1-yl)pyrrolo[1,2-b]pyridazin-4-yl)-3-cyclopropyl-4-methyl-2-oxopyrrolidine-3-carbonitrile] | 100 to 1000 | 100 to 1000 | 100 to 1000 | > 100 | 20 to 50 | – | – | – | –
C[C@@H]1CN(c2ccnn3cc(-n4cc(C5CN(C)CCO5)cn4)cc23)C(=O)[C@]1(C#N)C1CC1 (stereo partly drawn) [Example 317, (3R,4S)-3-cyclopropyl-4-methyl-1-(6-(4-(4-methylmorpholin-2-yl)-1H-pyrazol-1-yl)pyrrolo[1,2-b]pyridazin-4-yl)-2-oxopyrrolidine-3-carbonitrile] | 100 to 1000 | 100 to 1000 | 1000 to 5000 | > 100 | 20 to 50 | – | – | – | –
C[C@@H]1CN(c2nc(-c3cnn(CC4(C)COC4)c3)cn3ncc(F)c23)C(=O)[C@]1(C#N)C1CC1 [Example 303, (3R,4S)-3-cyclopropyl-1-(3-fluoro-6-(1-((3-methyloxetan-3-yl)methyl)-1H-pyrazol-4-yl)pyrazolo[1,5-a]pyrazin-4-yl)-4-methyl-2-oxopyrrolidine-3-carbonitrile] | < 100 | < 100 | < 100 | 50 to 100 | < 5 | – | – | – | –
C[C@@H]1CN(c2ccnn3cc(-c4cnn(CC5(C)COC5)c4)cc23)C(=O)[C@]1(C#N)C1CC1 [Example 325, (3R,4S)-3-cyclopropyl-4-methyl-1-(6-(1-((3-methyloxetan-3-yl)methyl)-1H-pyrazol-4-yl)pyrrolo[1,2-b]pyridazin-4-yl)-2-oxopyrrolidine-3-carbonitrile] | < 100 | < 100 | < 100 | 20 to 50 | < 5 | – | – | – | –
C[C@@H]1CN(c2ccnn3cc(-c4cccc5nccn45)cc23)C(=O)[C@]1(C#N)C1CC1 [Example 141, (3R,4S)-3-cyclopropyl-1-(6-(imidazo[1,2-a]pyridin-5-yl)pyrrolo[1,2-b]pyridazin-4-yl)-4-methyl-2-oxopyrrolidine-3-carbonitrile trifluoroacetate] | – | – | – | – | – | 1000 to 5000 | 1000 to 5000 | 1000 to 5000 | 20 to 50
C[C@@H]1CN(c2ccnn3cc(-c4cnn(C5(CO)CC5)c4)cc23)C(=O)[C@]1(C#N)C1CC1 [Example 322, (3R,4S)-3-cyclopropyl-1-(6-(1-(1-(hydroxymethyl)cyclopropyl)-1H-pyrazol-4-yl)pyrrolo[1,2-b]pyridazin-4-yl)-4-methyl-2-oxopyrrolidine-3-carbonitrile] | 100 to 1000 | < 100 | 100 to 1000 | 50 to 100 | < 5 | – | – | – | –
COc1cncc(-c2cc3c(N4C[C@@H](C)[C@@](C#N)(C5CC5)C4=O)ccnn3c2)n1 [Example 126, (3R,4S)-3-cyclopropyl-1-(6-(6-methoxypyrazin-2-yl)pyrrolo[1,2-b]pyridazin-4-yl)-4-methyl-2-oxopyrrolidine-3-carbonitrile trifluoroacetate] | – | – | – | – | – | 100 to 1000 | 100 to 1000 | 100 to 1000 | 20 to 50
